Columns and labels:
apo E-KO mice = assay: Plasma triglyceride levels in apo E-KO mice fed experimental diets; format: in vivo; settings: compounds in diet
Method: Thus, as outlined below, 40 male apo E-KO mice were divided into 5 groups of 8 with similar mean plasma cholesterol level and body weight. The animals were fed with the experimental diets for 14 weeks.
The animals were bled from the tail at base line and during the experiment for measurement of plasma lipid levels. At the end of the study, the mice were sacrificed using CO2 gas and taking blood from the heart.
Plasma triglyceride levels were measured in clinical lab At St. Paul's Hospital.

[1] = in vivo; cited from earlier work

For `O=C(O)c1cccnc1` [nicotinic acid], the “effect on plasma triglyceride levels” value (apo E-KO mice) is listed as “reduced triglyceride levels” and the “elevation of the "good" HDL cholesterol” value [1] is listed as 20-30%.
